Where two headings read alike, the source gives them in different places.
What was measured:
[1] = Serum concentration by HPLC in healthy human research participants (phase-1 study); type: in vivo; conditions: for concentration at 24 h: both sexes, human, serum, oral, 60 mg/day
Experimental: Dog serum concentrations of Compound-1, Compound-1F and Compound-4 were determined with serum isolated from the blood of German shepherd dogs (age: 8-9 months) taken at different time points (2 h, 4 h, 6 h, 8, 10 h, 24 h) after oral drug intake. The steady-state serum concentrations of Compound-1, Compound-1F and Compound-4 were determined in mice with blood isolated at the end of the study by cardiac puncture. Serum proteins were removed by acetonitrile precipitation, and compounds were extracted by chloroform before separation on an HPLC-C18 column (Poroshell 120 EC-C18, Agilent) with an HPLC system (Agilent 1100 Series) and detection at OD 280 nm, for Compound-1 and Compound-1F. Detection of Compound-4 was performed at OD 310 nm. The same extraction method was also used to determine Compound-1F in the serum of healthy human research participants. Dog hematology and biochemical parameters were determined by the Center of Applied Analytical and Veterinary Studies, Cairo, Egypt. ECG and blood pressure were measured by Dr. Mohamed Elsaed, Electrocardiography Unit, Faculty of Veterinary Medicine, Cairo University. The study was approved by the ethical committee of the Center of Applied and Veterinary Studies, Cairo, Egypt. Clinical laboratory parameters of human research participants were determined by the Rabaa El Adaweya Medical Central Hospital, Cairo, Egypt.
Study design: The study was a three-part phase-1, randomized, placebo-controlled study of Compound-1F. The primary end-point was safety and tolerability. Secondary objectives were plasma pharmacokinetics data (part-1, part-2, part-3) and peripheral blood mononuclear cell MPP1 status (part-3).
The first part (part-1) was a single ascending dose-effect study with three cohorts of 4 healthy research participants each, who received a single dose of 20 mg, 40 mg or 60 mg in subsequent cohorts. Three drug-treated and one placebo-treated subjects were randomized in each cohort (2 males, 2 females; age: 35-65 years). After completion of safety assessment, blood was drawn for analysis of pharmacokinetics data.
In the second part (part-2) of the study, the daily dose was increased every two days until the final dose of 60 mg/day was reached, i.e. the daily dose was 20 mg on day-1 and day-2, 40 mg on day-3 and day-4, and 60 mg on day-5 until day-14. Blood was drawn before study begin for analysis of laboratory parameters and on day-14 for analysis of laboratory parameters and determination of pharmacokinetics data, at the indicated time points after administration of the last dose of 60 mg. All study participants (n=10; 7 males, 3 females; Caucasians; age: 37-66 years; 8 participants received drug, and two received placebo) were healthy and had the possibility to withdraw from the study at any time. All study participants wanted to complete the study.
In the third part (part-3) of the study, a cohort of 8 healthy elderly voluntary research participants (7 males, 1 female; age 60-73 years; all Caucasians) received a daily oral dose of 60 mg of Compound-1F for 28 days (6 participants received drug, 2 placebo). In part-3 of the study, blood was drawn before study begin for analysis of clinical laboratory parameters and MPP1 status, and on day-28 for analysis of laboratory parameters and MPP1 status, and 24 h after the last drug intake for measurement of serum concentration of Compound-1F. […]

MPP1 = assay: Immunoblot of MPP1 content in PBMN cells of elderly human research participants; type: in vivo; conditions: 28 days, daily dose of 60 mg
Excerpt: For protein separation by SDS-PAGE (Laemmli system), the protein pellet can be dissolved in SDS-PAGE sample buffer supplemented with SDS. As an alternative, sample buffer for native gel electrophoresis can be added. According to the original protocol, the SDS-PAGE Laemmli sample buffer contains 2% SDS, 0.1 M DTT (or 5% mercaptoethanol). To improve disaggregation of aggregated proteins, the buffer can be supplemented without or with urea ranging from about 0 M-8 M, preferably about 6 M urea and incubated for about 10 min to 24 h, preferably about 90 min at room temperature. Proteins can be stored frozen (about […]) at a concentration ranging from about 0.01-100 mg/ml, preferably about 0.5 mg-1 mg/ml, for further use. It may be further desirable to dilute the solubilisate, for example, diluting the supernatant solubilisate by 1:1-1:20, preferably 1:5, in a suitable buffer as described above (preferably supplemented with protease inhibitors). Before immunoblot detection of proteins, proteins are separated. For separation of proteins, one- or two-dimensional SDS-PAGE can be applied. […]

In the case of O=C(C1=C(O)C(c2ccc(F)cc2)N(c2ccc3c(c2)OCO3)C1=O)C1CC1 (stereo not drawn) [Compound-1F, 1-(1,3-Benzodioxol-5-yl)-4-(cyclopropanecarbonyl)-2-(4-fluorophenyl)-3-hydroxy-2H-pyrrol-5-one], the concentration at 24 h ([1]; elderly research participants, 28 days once daily 60 mg, read-out: steady-state serum concentration at 24 h after the last drug intake) is reported as 1540 ± 310 ng/mL, the concentration at 24 h ([1]; healthy humans, repeated dosing 60 mg/day, read-out: serum concentration at 24 h after intake of the last dose) is reported as 1470 ± 330 ng/mL and the “dose dependence of serum concentration” value ([1]; healthy humans, oral Compound-1F 20, 40, 60 mg) is reported as “dose-dependent increase”. The “peak serum concentration at t=6 h” value ([1]; healthy humans, repeated dosing 60 mg/day, n=8) was 5.33 ± 0.76 µg/mL, the “time of peak serum concentration after drug intake” value ([1]; healthy humans, repeated dosing with 60 mg/day) was 6 h and the “senescence marker protein MPP1 in PBMN cells vs before treatment” value (MPP1) was “significant decrease”.
